Laboratory results: PMC5218480 (PLoS ONE, 2017)

Test system: MV-4-11 cells
Experiment: Gene expression microarray analysis (Affymetrix PrimeView) and GSEA
Assay type: cell-based, human
Design: RFU PODN (11730768_x_at) / Fold change /veh PODN (11730768_x_at) / RFU LINC00158 (11744669_a_at) / Fold change /veh LINC00158 (11744669_a_at) / RFU DUSP10 (11751237_a_at) / Fold change /veh DUSP10 (11751237_a_at) / RFU ID3 (11757404_x_at) / Fold change /veh ID3 (11757404_x_at) / RFU PLEKHG5 (11737974_s_at) / Fold change /veh PLEKHG5 (11737974_s_at) / RFU LRRC4B (11730491_at) / Fold change /veh LRRC4B (11730491_at) / RFU GIMAP4 (11747438_a_at) / Fold change /veh GIMAP4 (11747438_a_at) / RFU KRT8 (11758183_x_at) / Fold change /veh KRT8 (11758183_x_at) / RFU CNN1 (11734310_a_at) / Fold change /veh CNN1 (11734310_a_at) / RFU VPS37D (11726825_at) / Fold change /veh VPS37D (11726825_at) / RFU C10orf10 (11716522_x_at) / Fold change /veh C10orf10 (11716522_x_at) / RFU KIR2DL2 /// KIR2DL4 /// KIR2DL5A /// KIR2DL5B /// KIR2DS1 /// KIR2DS2 /// KIR2DS3 /// KIR2DS4 /// KIR3DL3 /// KIR3DL3 /// KIR3DS1 (11738374_at) / Fold change /veh KIR2DL2 /// KIR2DL4 /// KIR2DL5A /// KIR2DL5B /// KIR2DS1 /// KIR2DS2 /// KIR2DS3 /// KIR2DS4 /// KIR3DL3 /// KIR3DL3 /// KIR3DS1 (11738374_at) / RFU C1QL1 (11718748_at) / Fold change /veh C1QL1 (11718748_at) / RFU TMPRSS4 (11747572_a_at) / Fold change /veh TMPRSS4 (11747572_a_at) / RFU HAMP (11756126_x_at) / Fold change /veh HAMP (11756126_x_at) / RFU RNFT2 (11725882_a_at) / Fold change /veh RNFT2 (11725882_a_at) / RFU NR4A2 (11747474_a_at) / Fold change /veh NR4A2 (11747474_a_at) / RFU ABCC12 (11746883_a_at) / Fold change /veh ABCC12 (11746883_a_at) / RFU TMEM136 (11760407_x_at) / Fold change /veh TMEM136 (11760407_x_at) / RFU CLDN22 /// WWC2 (11732394_at) / Fold change /veh CLDN22 /// WWC2 (11732394_at) / RFU HLA-DPB1 (11760878_x_at) / Fold change /veh HLA-DPB1 (11760878_x_at) / RFU SPINT1 (11716480_a_at) / Fold change /veh SPINT1 (11716480_a_at) / RFU GAP43 (11754022_s_at) / Fold change /veh GAP43 (11754022_s_at) / RFU A4GNT (11735810_at) / Fold change /veh A4GNT (11735810_at) / RFU PRB3 (11715151_x_at) / Fold change /veh PRB3 (11715151_x_at) / RFU TUBB4B (11761932_at) / Fold change /veh TUBB4B (11761932_at) / RFU CAPN14 (11732068_a_at) / Fold change /veh CAPN14 (11732068_a_at) / RFU TMCC2 (11721928_a_at) / Fold change /veh TMCC2 (11721928_a_at) / RFU IRGQ (11745062_a_at) / Fold change /veh IRGQ (11745062_a_at) / RFU FAM174B (11720279_a_at) / Fold change /veh FAM174B (11720279_a_at) / RFU TMPRSS4 (11748680_a_at) / Fold change /veh TMPRSS4 (11748680_a_at) / RFU FAM212B (11763350_a_at) / Fold change /veh FAM212B (11763350_a_at) / RFU PLEKHG5 (11743358_a_at) / Fold change /veh PLEKHG5 (11743358_a_at) / RFU ZSCAN30 (11745921_a_at) / Fold change /veh ZSCAN30 (11745921_a_at) / RFU CMKLR1 (11741424_a_at) / Fold change /veh CMKLR1 (11741424_a_at) / RFU LOC101060620 /// MAPK8IP1 (11723275_at) / Fold change /veh LOC101060620 /// MAPK8IP1 (11723275_at) / RFU SPTSSB (11747773_x_at) / Fold change /veh SPTSSB (11747773_x_at) / RFU PRSS12 (11739890_at) / Fold change /veh PRSS12 (11739890_at) / RFU BIN1 (11741810_x_at) / Fold change /veh BIN1 (11741810_x_at) / RFU WNT11 (11732464_a_at) / Fold change /veh WNT11 (11732464_a_at) / RFU C10orf10 (11716521_a_at) / Fold change /veh C10orf10 (11716521_a_at) / RFU C5orf56 (11738089_at) / Fold change /veh C5orf56 (11738089_at) / RFU CYB561 (11721691_x_at) / Fold change /veh CYB561 (11721691_x_at) / RFU ANKRD19P (11752326_a_at) / Fold change /veh ANKRD19P (11752326_a_at) / RFU OR2T12 /// OR2T33 /// OR2T8 (11738714_s_at) / Fold change /veh OR2T12 /// OR2T33 /// OR2T8 (11738714_s_at) / RFU VCAN (11748164_a_at) / Fold change /veh VCAN (11748164_a_at) / RFU JSRP1 (11732532_at) / Fold change /veh JSRP1 (11732532_at) / RFU KRTAP10-11 (11738290_x_at) / Fold change /veh KRTAP10-11 (11738290_x_at) / RFU MYO3A (11730013_a_at) / Fold change /veh MYO3A (11730013_a_at) / RFU EBF3 (11725865_a_at) / Fold change /veh EBF3 (11725865_a_at) / RFU CAMK2N1 (11719241_x_at) / Fold change /veh CAMK2N1 (11719241_x_at) / RFU C5orf56 (11738088_a_at) / Fold change /veh C5orf56 (11738088_a_at) / RFU OLFML3 (11715873_a_at) / Fold change /veh OLFML3 (11715873_a_at) / RFU LOC100653217 /// NTM (11731650_a_at) / Fold change /veh LOC100653217 /// NTM (11731650_a_at) / RFU MAPK11 (11762145_a_at) / Fold change /veh MAPK11 (11762145_a_at) / RFU FIZ1 (11724087_x_at) / Fold change /veh FIZ1 (11724087_x_at) / RFU OASL (11726364_x_at) / Fold change /veh OASL (11726364_x_at) / RFU SOX15 (11748057_x_at) / Fold change /veh SOX15 (11748057_x_at) / RFU CD79A (11719716_a_at) / Fold change /veh CD79A (11719716_a_at) / RFU HIST1H1D (11736915_at) / Fold change /veh HIST1H1D (11736915_at) / RFU CASKIN2 (11723855_a_at) / Fold change /veh CASKIN2 (11723855_a_at) / RFU LOC730098 (11760151_x_at) / Fold change /veh LOC730098 (11760151_x_at) / RFU OR4N2 (11742367_at) / Fold change /veh OR4N2 (11742367_at) / RFU PRRT2 (11749266_a_at) / Fold change /veh PRRT2 (11749266_a_at) / RFU SNX32 (11753110_a_at) / Fold change /veh SNX32 (11753110_a_at) / RFU CDHR5 (11726645_a_at) / Fold change /veh CDHR5 (11726645_a_at) / RFU RCAN1 (11760418_a_at) / Fold change /veh RCAN1 (11760418_a_at) / RFU FAM167A (11723789_a_at) / Fold change /veh FAM167A (11723789_a_at) / RFU FAM26E (11764081_at) / Fold change /veh FAM26E (11764081_at) / RFU ISYNA1 (11749810_s_at) / Fold change /veh ISYNA1 (11749810_s_at) / RFU ACY1 (11761880_at) / Fold change /veh ACY1 (11761880_at) / RFU 11764098_at / Fold change /veh 11764098_at / RFU SAMD14 (11745864_x_at) / Fold change /veh SAMD14 (11745864_x_at) / RFU NPB (11741838_a_at) / Fold change /veh NPB (11741838_a_at) / RFU TMPRSS6 (11731388_a_at) / Fold change /veh TMPRSS6 (11731388_a_at) / RFU KRTAP10-2 (11738614_at) / Fold change /veh KRTAP10-2 (11738614_at) / RFU ARHGAP8 /// PRR5-ARHGAP8 (11727945_x_at) / Fold change /veh ARHGAP8 /// PRR5-ARHGAP8 (11727945_x_at) / RFU KRTAP5-7 /// NADSYN1 (11734609_at) / Fold change /veh KRTAP5-7 /// NADSYN1 (11734609_at) / RFU RASL12 (11751679_a_at) / Fold change /veh RASL12 (11751679_a_at) / RFU CDKN2B (11736163_a_at) / Fold change /veh CDKN2B (11736163_a_at) / RFU PRF1 (11729649_at) / Fold change /veh PRF1 (11729649_at) / RFU, ZNF638 /// ZNF638-IT1 / Fold change vs veh, ZNF638 /// ZNF638-IT1 / RFU, PANK3 / Fold change vs veh, PANK3 / RFU, SH3YL1 / Fold change vs veh, SH3YL1 / RFU, ZEB2 / Fold change vs veh, ZEB2 / RFU, NRIP1 / Fold change vs veh, NRIP1 / RFU, PTTG1IP / Fold change vs veh, PTTG1IP / RFU, CAPN2 / Fold change vs veh, CAPN2 / RFU, MED14 / Fold change vs veh, MED14 / RFU, SNORA58 / Fold change vs veh, SNORA58 / RFU, C1orf63 / Fold change vs veh, C1orf63 / RFU, LRRFIP1 / Fold change vs veh, LRRFIP1 / RFU, NDUFAF7 / Fold change vs veh, NDUFAF7 / RFU, SLC12A2 / Fold change vs veh, SLC12A2 / RFU, IBTK / Fold change vs veh, IBTK / RFU, ESF1 / Fold change vs veh, ESF1 / Fold change vs veh, TMEM50B / RFU, TAOK1 / Fold change vs veh, TAOK1 / RFU, ACBD3 / Fold change vs veh, ACBD3 / RFU, TMA16 / Fold change vs veh, TMA16 / RFU, RWDD3 / Fold change vs veh, RWDD3 / RFU, BCAT1 / Fold change vs veh, BCAT1 / RFU, EDEM3 / Fold change vs veh, EDEM3 / RFU, TMEM33 / Fold change vs veh, TMEM33 / RFU, WDR75 / Fold change vs veh, WDR75 / RFU, AHCTF1 / Fold change vs veh, AHCTF1 / RFU, TFRC / Fold change vs veh, TFRC / RFU, ZDHHC17 / Fold change vs veh, ZDHHC17 / RFU, NOM1 / Fold change vs veh, NOM1 / RFU, ARL8B / Fold change vs veh, ARL8B / RFU, ZBTB11 / Fold change vs veh, ZBTB11 / RFU, TAMM41 / Fold change vs veh, TAMM41 / RFU, KIAA1704 /// LOC100996395 / Fold change vs veh, KIAA1704 /// LOC100996395 / RFU, ING1 / Fold change vs veh, ING1 / RFU, TRMT61B / Fold change vs veh, TRMT61B / RFU, FUBP3 / Fold change vs veh, FUBP3 / RFU, TP53 / Fold change vs veh, TP53 / RFU, TNKS2 / Fold change vs veh, TNKS2 / RFU, ZFP14 / Fold change vs veh, ZFP14 / RFU, ACTR2 / Fold change vs veh, ACTR2 / RFU, PPP3R1 / Fold change vs veh, PPP3R1 / RFU, PIK3R1 / Fold change vs veh, PIK3R1 / RFU, HNRNPA1 / Fold change vs veh, HNRNPA1 / RFU, RNF170 / Fold change vs veh, RNF170 / RFU, ZNF28 / Fold change vs veh, ZNF28 / RFU, RNGTT / Fold change vs veh, RNGTT / RFU, OGT / Fold change vs veh, OGT / RFU, BRD1 / Fold change vs veh, BRD1 / RFU, MARS / Fold change vs veh, MARS / RFU, ZNF655 / Fold change vs veh, ZNF655 / RFU, FAHD1 / Fold change vs veh, FAHD1 / RFU, BDP1 / Fold change vs veh, BDP1 / RFU, LRRCC1 / Fold change vs veh, LRRCC1 / RFU, ARID1A / Fold change vs veh, ARID1A / RFU, ZNF146 / Fold change vs veh, ZNF146 / RFU, ZNF330 / Fold change vs veh, ZNF330 / RFU, GPN3 / Fold change vs veh, GPN3 / RFU, C9orf123 / Fold change vs veh, C9orf123 / RFU, N4BP2L2 / Fold change vs veh, N4BP2L2 / RFU, ARFIP1 / Fold change vs veh, ARFIP1 / RFU, FAM179B / Fold change vs veh, FAM179B / RFU, BCL10 / Fold change vs veh, BCL10 / RFU, UHRF1BP1L / Fold change vs veh, UHRF1BP1L / RFU, BET1 / Fold change vs veh, BET1 / RFU, CNOT2 / Fold change vs veh, CNOT2 / RFU, ZNF268 / Fold change vs veh, ZNF268 / Fold change vs veh, ZNF507 / RFU, DGCR2 / Fold change vs veh, DGCR2 / RFU, WDSUB1 / Fold change vs veh, WDSUB1 / Fold change vs veh, HSP90B1 /// MIR3652 / RFU, ADSS / Fold change vs veh, ADSS / RFU, GK / Fold change vs veh, GK / RFU, ZNF148 / Fold change vs veh, ZNF148 / RFU, TAF9 / Fold change vs veh, TAF9 / RFU, SLC1A5 / Fold change vs veh, SLC1A5 / RFU, SLMO2 / Fold change vs veh, SLMO2 / RFU, ABCC4 / Fold change vs veh, ABCC4 / RFU, LOC101060439 /// RAP1B / Fold change vs veh, LOC101060439 /// RAP1B / RFU, RFX7 / Fold change vs veh, RFX7 / RFU, GTPBP10 / Fold change vs veh, GTPBP10 / RFU, CNEP1R1 / Fold change vs veh, CNEP1R1 / RFU, BIVM-ERCC5 /// ERCC5 / Fold change vs veh, BIVM-ERCC5 /// ERCC5 / RFU, ILF3 / Fold change vs veh, ILF3 / RFU 11762660_at / Fold change /veh 11762660_at / RFU VCAN (11757783_s_at) / Fold change /veh VCAN (11757783_s_at) / RFU DDX43 (11728927_at) / Fold change /veh DDX43 (11728927_at) / RFU KRT8 (11758188_x_at) / Fold change /veh KRT8 (11758188_x_at) / RFU NKD1 (11759106_at) / Fold change /veh NKD1 (11759106_at) / RFU SRD5A1 (11742802_a_at) / Fold change /veh SRD5A1 (11742802_a_at) / RFU TPSAB1 /// TPSB2 (11721975_s_at) / Fold change /veh TPSAB1 /// TPSB2 (11721975_s_at) / RFU GSTM3 (11746129_a_at) / Fold change /veh GSTM3 (11746129_a_at) / RFU IL23R (11737362_x_at) / Fold change /veh IL23R (11737362_x_at) / RFU TMEM51 (11727254_a_at) / Fold change /veh TMEM51 (11727254_a_at) / RFU PIWIL2 (11732686_x_at) / Fold change /veh PIWIL2 (11732686_x_at) / RFU ORM1 (11744905_x_at) / Fold change /veh ORM1 (11744905_x_at) / RFU CCDC152 (11743942_at) / Fold change /veh CCDC152 (11743942_at) / RFU ECM1 (11717891_a_at) / Fold change /veh ECM1 (11717891_a_at) / RFU IL23R (11748794_a_at) / Fold change /veh IL23R (11748794_a_at) / RFU TNFAIP8L3 (11732012_x_at) / Fold change /veh TNFAIP8L3 (11732012_x_at) / RFU MBOAT4 (11741988_at) / Fold change /veh MBOAT4 (11741988_at) / RFU 11764193_at / Fold change /veh 11764193_at / RFU TMEM53 (11763286_at) / Fold change /veh TMEM53 (11763286_at) / RFU MAGEB2 (11727129_at) / Fold change /veh MAGEB2 (11727129_at) / RFU TMEM200A (11744735_a_at) / Fold change /veh TMEM200A (11744735_a_at) / RFU CCDC152 (11751479_a_at) / Fold change /veh CCDC152 (11751479_a_at) / RFU FAM211A (11726209_a_at) / Fold change /veh FAM211A (11726209_a_at) / RFU RGS16 (11746705_a_at) / Fold change /veh RGS16 (11746705_a_at) / RFU VCAN (11755009_s_at) / Fold change /veh VCAN (11755009_s_at) / RFU RHOB (11743442_s_at) / Fold change /veh RHOB (11743442_s_at) / RFU RGS16 (11720943_a_at) / Fold change /veh RGS16 (11720943_a_at) / RFU RGS16 (11720944_at) / Fold change /veh RGS16 (11720944_at) / RFU, VPS4B / Fold change vs veh, VPS4B / RFU, CREB1 / Fold change vs veh, CREB1 / RFU, DNAJC13 / Fold change vs veh, DNAJC13 / RFU, GNAQ / Fold change vs veh, GNAQ / RFU, CDK5R1 / Fold change vs veh, CDK5R1 / RFU, ZRANB3 / Fold change vs veh, ZRANB3 / RFU, CUL4A / Fold change vs veh, CUL4A / RFU, CCNY / Fold change vs veh, CCNY / RFU, UFL1 / Fold change vs veh, UFL1 / RFU, COG3 / Fold change vs veh, COG3 / RFU, DIAPH2 / Fold change vs veh, DIAPH2 / RFU, SKA2 / Fold change vs veh, SKA2 / RFU, AFF3 / Fold change vs veh, AFF3 / RFU, LMF1 / Fold change vs veh, LMF1 / RFU, IPO11 / Fold change vs veh, IPO11 / RFU, DFFB / Fold change vs veh, DFFB / RFU, FOXP1 / Fold change vs veh, FOXP1 / RFU, CARD8 / Fold change vs veh, CARD8 / RFU, STRN3 / Fold change vs veh, STRN3 / RFU, ADK / Fold change vs veh, ADK / RFU, RASSF2 / Fold change vs veh, RASSF2 / RFU, WIPF1 / Fold change vs veh, WIPF1 / RFU, LARP1B / Fold change vs veh, LARP1B / RFU, RASA1 / Fold change vs veh, RASA1 / RFU, RB1 / Fold change vs veh, RB1 / RFU, PPFIA1 / Fold change vs veh, PPFIA1 / RFU, MAT2A / Fold change vs veh, MAT2A / RFU, CCT5 / Fold change vs veh, CCT5 / RFU, WDR92 / Fold change vs veh, WDR92 / RFU, CUX1 / Fold change vs veh, CUX1 / RFU, TTC7A / Fold change vs veh, TTC7A / RFU, TMEM135 / Fold change vs veh, TMEM135 / RFU, DEPTOR / Fold change vs veh, DEPTOR / RFU, CPM / Fold change vs veh, CPM / RFU, DNAJB6 / Fold change vs veh, DNAJB6 / RFU, CACNA2D3 / Fold change vs veh, CACNA2D3 / RFU, DTX4 / Fold change vs veh, DTX4 / RFU, TFCP2 / Fold change vs veh, TFCP2 / RFU, GMCL1 /// GMCL1P1 / Fold change vs veh, GMCL1 /// GMCL1P1 / RFU, AEBP2 / Fold change vs veh, AEBP2 / RFU, SNHG1 /// SNORD22 /// SNORD25 /// SNORD26 /// SNORD27 /// SNORD28 /// SNORD29 /// SNORD31 / Fold change vs veh, SNHG1 /// SNORD22 /// SNORD25 /// SNORD26 /// SNORD27 /// SNORD28 /// SNORD29 /// SNORD31 / Fold change (Aza/veh), C12orf56 (ProbeSet 11735607_a_at) / Fold change (ACY-1035/veh), C12orf56 (ProbeSet 11735607_a_at) / Fold change (Aza/veh), FGFR1OP (ProbeSet 11751329_s_at) / Fold change (ACY-1035/veh), FGFR1OP (ProbeSet 11751329_s_at) / Fold change (Aza/veh), VPS36 (ProbeSet 11739960_a_at) / Fold change (ACY-1035/veh), VPS36 (ProbeSet 11739960_a_at) / RFU SYPL1 (11715823_x_at) / Fold change /veh SYPL1 (11715823_x_at) / RFU IGFBP7 (11715501_s_at) / Fold change /veh IGFBP7 (11715501_s_at) / RFU REEP3 (11722064_at) / Fold change /veh REEP3 (11722064_at) / RFU IGLL1 (11728026_x_at) / Fold change /veh IGLL1 (11728026_x_at): dose or concentration left out as unconfirmed
Details: MV-4-11 cells, 48 hours

Nc1ncn([C@@H]2O[C@H](CO)[C@@H](O)[C@H]2O)c(=O)n1 [azacitidine]
Fold change /veh IGFBP7 (11715501_s_at): 0.50
